According to the OligoGym collection:
HELM strings list units from the 5' end as sugar, base in round brackets, then linkage (d deoxyribose, r ribose, m 2'-O-methyl, p phosphodiester). Strings are as the collection lists them; they lack the last nucleoside at the 3' end of the tested compound. [moe] = 2'-O-(2-methoxyethyl) (MOE); [sp] = phosphorothioate linkage; [m5C] = 5-methylcytosine

Molecular target: UBE3A-ATS
Test: mouse, dose not given
Settings: ASO

Row | Substance | 3 h FOB score [score 0-7]
1 | RNA1{[moe](T)[sp].[moe](G)p.[moe]([m5C])p.[moe](A)p.[moe](T)p.d(G)[sp].d(T)[sp].d(G)[sp].d(G)[sp].d(G)[sp].d([m5C])[sp].d([m5C])[sp].d(T)[sp].d([m5C])[sp].d(T)[sp].[moe](A)p.[moe](T)p.[moe](T)[sp].[moe](A)}$$$$ (last 3' nucleoside missing) | 4
2 | RNA1{[moe](T)[sp].[moe](G)p.[moe](G)p.[moe](T)p.d([m5C])[sp].d(A)[sp].d(T)[sp].d([m5C])[sp].d(T)[sp].d([m5C])[sp].d(G)[sp].d(G)[sp].d(G)[sp].d(T)[sp].[moe](A)p.[moe](T)p.[moe](A)p.[moe](T)[sp].[moe](A)}$$$$ (last 3' nucleoside missing) | 4
3 | RNA1{[moe](G)[sp].[moe]([m5C])p.[moe]([m5C])p.[moe](A)p.d(G)[sp].d(G)[sp].d(T)[sp].d(G)[sp].d(T)[sp].d([m5C])[sp].d(T)[sp].d(T)[sp].d(A)[sp].d(T)[sp].[moe](A)p.[moe](T)p.[moe]([m5C])p.[moe](T)[sp].[moe](A)}$$$$ (last 3' nucleoside missing) | 1
4 | RNA1{[moe](G)[sp].[moe](T)p.[moe](A)p.[moe]([m5C])p.[moe](A)p.d([m5C])[sp].d(T)[sp].d(A)[sp].d(T)[sp].d(T)[sp].d(G)[sp].d(T)[sp].d(T)[sp].d(T)[sp].d(T)[sp].[moe](G)p.[moe](A)p.[moe](T)[sp].[moe](A)}$$$$ (last 3' nucleoside missing) | 2.5
5 | RNA1{[moe](A)[sp].[moe]([m5C])p.[moe]([m5C])p.[moe]([m5C])p.[moe]([m5C])p.d(T)[sp].d(A)[sp].d(G)[sp].d(G)[sp].d(A)[sp].d(A)[sp].d(T)[sp].d(A)[sp].d(A)[sp].d(T)[sp].[moe](G)p.[moe](T)p.[moe](T)[sp].[moe](G)}$$$$ (last 3' nucleoside missing) | 2
6 | RNA1{[moe](A)[sp].[moe](T)p.[moe](T)p.[moe]([m5C])p.[moe](A)p.d(G)[sp].d(A)[sp].d(T)[sp].d(A)[sp].d([m5C])[sp].d(T)[sp].d(A)[sp].d(G)[sp].d(T)[sp].d(T)[sp].[moe](T)p.[moe](A)p.[moe]([m5C])[sp].[moe]([m5C])}$$$$ (last 3' nucleoside missing) | 2.8
7 | RNA1{[moe]([m5C])[sp].[moe](A)p.[moe](T)p.[moe](A)p.[moe](T)p.d(A)[sp].d([m5C])[sp].d(T)[sp].d(A)[sp].d(A)[sp].d(A)[sp].d(T)[sp].d(G)[sp].d(T)[sp].d(T)[sp].[moe](G)p.[moe]([m5C])p.[moe]([m5C])[sp].[moe](G)}$$$$ (last 3' nucleoside missing) | 1
8 | RNA1{[moe](T)[sp].[moe](T)p.[moe](T)p.[moe](G)p.[moe](T)p.d(A)[sp].d(G)[sp].d([m5C])[sp].d(T)[sp].d(A)[sp].d(T)[sp].d(A)[sp].d(G)[sp].d(G)[sp].d(T)[sp].[moe](G)p.[moe](T)p.[moe]([m5C])[sp].[moe](A)}$$$$ (last 3' nucleoside missing) | 2.3
9 | RNA1{[moe]([m5C])[sp].[moe]([m5C])p.[moe](T)p.[moe]([m5C])p.[moe](T)p.d(T)[sp].d([m5C])[sp].d([m5C])[sp].d(A)[sp].d(A)[sp].d(A)[sp].d(A)[sp].d(T)[sp].d(T)[sp].d([m5C])[sp].[moe](T)p.[moe]([m5C])p.[moe](A)[sp].[moe]([m5C])}$$$$ (last 3' nucleoside missing) | 0
10 | RNA1{[moe]([m5C])[sp].[moe](G)p.[moe](T)p.[moe](A)p.[moe](T)p.d(T)[sp].d(G)[sp].d(G)[sp].d(A)[sp].d([m5C])[sp].d([m5C])[sp].d(T)[sp].d(T)[sp].d(T)[sp].d([m5C])[sp].[moe](A)p.[moe](A)p.[moe](T)[sp].[moe](G)}$$$$ (last 3' nucleoside missing) | 3.5
11 | RNA1{[moe](G)[sp].[moe](G)p.[moe](T)p.[moe]([m5C])p.[moe](A)p.[moe](A)p.d([m5C])[sp].d([m5C])[sp].d(A)[sp].d(A)[sp].d(T)[sp].d(T)[sp].d(T)[sp].d(G)[sp].d([m5C])[sp].d(T)[sp].[moe](A)p.[moe](T)[sp].[moe](T)}$$$$ (last 3' nucleoside missing) | 5
12 | RNA1{[moe](A)[sp].[moe](G)p.[moe]([m5C])p.[moe]([m5C])p.[moe](A)[sp].d(G)[sp].d(G)[sp].d(T)[sp].d(G)[sp].d(T)[sp].d([m5C])[sp].d(T)[sp].d(T)[sp].[moe](A)p.[moe](T)p.[moe](A)[sp].[moe](T)}$$$$ (last 3' nucleoside missing) | 6
13 | RNA1{[moe]([m5C])[sp].[moe](A)p.[moe](A)p.[moe](G)p.[moe](A)p.d([m5C])[sp].d([m5C])[sp].d(T)[sp].d(A)[sp].d(T)[sp].d(A)[sp].d(G)[sp].d(G)[sp].d(A)[sp].d([m5C])[sp].[moe]([m5C])p.[moe](T)p.[moe]([m5C])[sp].[moe](A)}$$$$ (last 3' nucleoside missing) | 3
14 | RNA1{[moe](G)[sp].[moe](T)p.[moe]([m5C])p.[moe](T)p.[moe]([m5C])p.d(T)[sp].d(G)[sp].d([m5C])[sp].d(T)[sp].d([m5C])[sp].d(A)[sp].d(G)[sp].d(T)[sp].d(T)[sp].d(A)[sp].[moe](G)p.[moe](G)p.[moe](T)[sp].[moe](T)}$$$$ (last 3' nucleoside missing) | 1
15 | RNA1{[moe](G)[sp].[moe](G)p.[moe](A)p.[moe](A)p.[moe](G)p.d(G)[sp].d(A)[sp].d(A)[sp].d(A)[sp].d([m5C])[sp].d(A)[sp].d([m5C])[sp].d(A)[sp].d([m5C])[sp].d(A)[sp].[moe](T)p.[moe](A)p.[moe](A)[sp].[moe](T)}$$$$ (last 3' nucleoside missing) | 0.5
16 | RNA1{[moe](G)[sp].[moe](G)p.[moe]([m5C])p.[moe](A)p.[moe](A)p.d(T)[sp].d(G)[sp].d(G)[sp].d(A)[sp].d([m5C])[sp].d(T)[sp].d(T)[sp].d(A)[sp].d(G)[sp].d(T)[sp].[moe](A)p.[moe]([m5C])p.[moe](A)[sp].[moe]([m5C])}$$$$ (last 3' nucleoside missing) | 2.3
17 | RNA1{[moe]([m5C])[sp].[moe](A)p.[moe](T)p.[moe]([m5C])p.[moe](T)p.d([m5C])[sp].d(G)[sp].d(G)[sp].d(G)[sp].d(T)[sp].d(A)[sp].d(T)[sp].d(A)[sp].d(T)[sp].d(A)[sp].[moe](A)p.[moe](A)p.[moe](T)[sp].[moe](T)}$$$$ (last 3' nucleoside missing) | 2
18 | RNA1{[moe](G)[sp].[moe](A)p.[moe](T)p.[moe]([m5C])p.[moe](A)p.d(T)[sp].d(G)[sp].d(T)[sp].d(G)[sp].d([m5C])[sp].d(A)[sp].d(T)[sp].d(A)[sp].d([m5C])[sp].d([m5C])[sp].[moe]([m5C])p.[moe](A)p.[moe](G)[sp].[moe](G)}$$$$ (last 3' nucleoside missing) | 5.7
19 | RNA1{[moe]([m5C])[sp].[moe](T)p.[moe]([m5C])p.[moe](A)p.[moe](G)p.d(T)[sp].d(T)[sp].d(A)[sp].d(G)[sp].d(G)[sp].d(T)[sp].d(T)[sp].d(A)[sp].d(G)[sp].d(T)[sp].[moe](G)p.[moe]([m5C])p.[moe](A)[sp].[moe]([m5C])}$$$$ (last 3' nucleoside missing) | 6
20 | RNA1{[moe](G)[sp].[moe]([m5C])p.[moe]([m5C])p.[moe](T)p.[moe](G)p.d([m5C])[sp].d(T)[sp].d([m5C])[sp].d(A)[sp].d(A)[sp].d(A)[sp].d(T)[sp].d([m5C])[sp].d(T)[sp].d(G)[sp].[moe]([m5C])p.[moe](G)p.[moe](A)[sp].[moe](A)}$$$$ (last 3' nucleoside missing) | 2
21 | RNA1{[moe](T)[sp].[moe](T)p.[moe](T)p.[moe](T)p.[moe](T)p.d([m5C])[sp].d([m5C])[sp].d(A)[sp].d(T)[sp].d(T)[sp].d(T)[sp].d(T)[sp].d(T)[sp].d([m5C])[sp].d(T)[sp].[moe]([m5C])p.[moe](T)p.[moe](T)[sp].[moe](A)}$$$$ (last 3' nucleoside missing) | 1.3
22 | RNA1{[moe](T)[sp].[moe](G)p.[moe]([m5C])p.[moe](A)p.[moe](T)p.d(A)[sp].d([m5C])[sp].d([m5C])[sp].d([m5C])[sp].d(A)[sp].d(G)[sp].d(G)[sp].d(G)[sp].d(T)[sp].d(A)[sp].[moe](G)p.[moe](G)p.[moe](A)[sp].[moe](T)}$$$$ (last 3' nucleoside missing) | 2
23 | RNA1{[moe](T)[sp].[moe](G)p.[moe](T)p.[moe](G)p.[moe](T)p.d(G)[sp].d(T)[sp].d(T)[sp].d(T)[sp].d(T)[sp].d(T)[sp].d([m5C])[sp].d([m5C])[sp].d(A)[sp].d(T)[sp].[moe](T)p.[moe](T)p.[moe](T)[sp].[moe](T)}$$$$ (last 3' nucleoside missing) | 0
24 | RNA1{[moe](G)[sp].[moe](A)p.[moe](G)p.[moe]([m5C])p.[moe](T)p.[moe](A)p.d(T)[sp].d([m5C])[sp].d(T)[sp].d(G)[sp].d(T)[sp].d(A)[sp].d([m5C])[sp].d(A)[sp].d(A)[sp].d(A)[sp].[moe](A)p.[moe](T)[sp].[moe](G)}$$$$ (last 3' nucleoside missing) | 5.2
25 | RNA1{[moe](T)[sp].[moe]([m5C])p.[moe](A)p.[moe](G)p.[moe](A)p.d(T)[sp].d(T)[sp].d([m5C])[sp].d([m5C])[sp].d(T)[sp].d(A)[sp].d(A)[sp].d(A)[sp].d(T)[sp].d(A)[sp].[moe]([m5C])p.[moe](G)p.[moe]([m5C])[sp].[moe](A)}$$$$ (last 3' nucleoside missing) | 0
26 | RNA1{[moe](G)[sp].[moe]([m5C])p.[moe](A)p.[moe](T)p.[moe](A)p.d([m5C])[sp].d([m5C])[sp].d([m5C])[sp].d(A)[sp].d(G)[sp].d(G)[sp].d(G)[sp].d(T)[sp].d(A)[sp].d(G)[sp].[moe](G)p.[moe](A)p.[moe](T)[sp].[moe](T)}$$$$ (last 3' nucleoside missing) | 3
